From ChEMBL document CHEMBL3301361, “Experimental in vitro DMPK and physicochemical data on a set of publicly disclosed compounds” come the findings set out here.

One data set can be described thus: physchem. The note with it: octan-1-ol/water, pH 7.4.
What is called logD is the decadic logarithm of the distribution of all forms, ionised or not, between an organic phase and buffer at a given pH. `COc1cc(O)c2c(c1)/C=C/C[C@H](O)[C@H](O)C(=O)/C=C\C[C@H](C)OC2=O`: the pH-dependent lipophilicity (logD) was 1.64.

For `N#Cc1c(-c2ccccc2)nc(SCCc2ccccc2)[nH]c1=O`, the logD is 1.71.

`C[C@H]1NC(C)(C)CO[C@]1(O)c1cccc(Cl)c1`: the logD came to 1.69. The logD values of the last two compounds are within 0.2 log units of each other.

With `O=C(N[C@@H]1CN2CCC1CC2)c1ccc(-c2ccccc2)s1`, the logD is 1.77.

Regarding `CN1CC=C(c2cccc(O)c2)CC1`, the logD is 0.53.

`NC(=O)c1cccc(O[C@H]2C[C@H]3CC[C@@H](C2)N3CC2CCCCC2)c1` showed a log distribution coefficient (logD) of 1.55.

The compound `CN(C)C(=O)N[C@H]1CC[C@H](CCN2[C@@H]3CC[C@H]2C[C@@H](Oc2cccc(C(N)=O)c2)C3)CC1` registered a logD of 0.12.

`CN(C)C(=O)N[C@H]1CC[C@@H](CCN2[C@@H]3CC[C@H]2C[C@@H](Oc2cccc(C(N)=O)c2)C3)CC1` showed a log distribution coefficient (logD) of 0.22. The logD values of the last two compounds are within 0.2 log units of each other.

In turn, `NC(=O)c1cccc(O[C@H]2C[C@H]3CC[C@@H](C2)N3Cc2ccccc2)c1` returned a logD of 1.61.

In turn, `NC(=O)c1cccc(O[C@@H]2C[C@H]3CC[C@@H](C2)N3Cc2ccccc2)c1` displayed a logD of 1.76.

`NC(=O)c1cccc(C[C@H]2C[C@H]3CC[C@@H](C2)N3Cc2ccccc2)c1` displayed a logD of 1.19.

`NC(=O)c1cccc(C[C@@H]2C[C@H]3CC[C@@H](C2)N3Cc2ccccc2)c1` displayed a logD of 1.11.

`NC(=O)c1cccc(N[C@H]2C[C@H]3CC[C@@H](C2)N3Cc2ccccc2)c1`: the logD was 1.01. The logD values of the last two compounds are within 0.2 log units of each other.

As for `NC(=O)c1cccc(O[C@H]2C[C@H]3CC[C@@H](C2)N3Cc2ccccc2)n1`, the logD is 1.71.

`NC(=O)c1cncc(O[C@H]2C[C@H]3CC[C@@H](C2)N3Cc2ccccc2)n1`: the logD amounted to 1.1.

Consider `Cc1c(O[C@H]2C[C@H]3CC[C@@H](C2)N3Cc2ccccc2)cccc1C(N)=O`, for which the logD was found to be 1.6.

Take `NC(=O)c1ccc(O[C@H]2C[C@H]3CC[C@@H](C2)N3Cc2ccccc2)nc1`: the logD was found to be 1.25.

Regarding `Oc1ccnc2ccccc12`, the logD was determined as 0.8.

With `CCN(CC)C(=O)c1ccc(C(c2cccc3cccnc23)N2CCNCC2)cc1` (stereo not drawn), the logD was found to be 0.7.

For `O=c1c2ccccc2nc2n1CCS2(=O)=O`, the logD was determined as 0.8.

Turning to `Cc1cc(O)nc(-n2nc(C)c(Oc3ccccc3O)c2C)n1`, the logD came to 1.4.

`c1ccc(CCNCc2ccccc2)cc1` yielded a logD of 1.65.

As for `COc1ccc(C=C2SC(=O)NC2=O)cc1OC`, the log distribution coefficient (logD) was found to be 1.17.

Turning to `Cn1nnc(-c2ccc(-c3ccc(N4C[C@H](COc5ccon5)OC4=O)cc3F)cn2)n1`, the logD was 1.24.

In the case of `COc1cc(F)ccc1-c1cncc(C2CCCN2)c1` (stereo not drawn), the logD was 1.1.

Compound `O=C(NCc1ccncn1)c1ccc(Oc2ccc(C#C[C@]3(O)CN4CCC3CC4)cc2)cc1` displayed a log distribution coefficient (logD) of 1.78.

As to `O=C(NCc1ccncn1)c1ccc(Oc2ccc(C#C[C@@]3(O)CN4CCC3CC4)cc2)cc1`, the logD came to 1.77.

On to `O=C(O)c1cn(C2CC2)c2cc(=[N+]3CCN(C(=O)CC[N+](=O)[O-])CC3)c(F)cc-2c1[O-]`, for which the logD turned out to be 0.22.

For `CC(O)c1ccc2c(c1)N(CCN1CCC(NCc3ccc4c(n3)NC(=O)CO4)CC1)C(=O)CO2` (stereo not drawn), the logD was 0.25.

As for `O=C1COc2ccc(CNC3CCN(CCN4C(=O)COc5ccc(O)cc54)CC3)nc2N1`, the logD turned out to be 0.52.

As for `COC(=O)c1ccc2c(c1)N(CCN1CCC(NCc3ccc4c(n3)NC(=O)CO4)CC1)C(=O)CO2`, the logD was 0.83.

Compound `CC(=O)c1ccc2c(c1)N(CCN1CCC(NCc3ccc4c(n3)NC(=O)CO4)CC1)C(=O)CO2` yielded a log distribution coefficient (logD) of 0.37.

Take `O=C(Cc1c(C(=O)O)[nH]c2ccccc12)Nc1cccc(C(F)(F)F)c1`: the logD was 1.33.

In turn, `CN1CCC[C@H]1c1ccccn1` had a logD of 0.44.

Compound `c1cncc(-c2ccc(-c3nnc(C4CN5CCC4CC5)o3)o2)c1` (stereo not drawn) returned a logD of 1.2.

For the compound `c1ccc(C2CCNCC2)cc1`, the logD came out at 0.54.

With `Nc1nc(Nc2ccc3nc(-c4ccc(F)cc4)cc(N)c3c2)cc(-c2ccc(C(F)(F)F)cc2)n1`, the logD turned out to be 1.54.

`CCN(CC)C(=O)c1ccc(C(=C2CCNCC2)c2ccccc2OC)cc1` gave a logD of 1.

`c1ccc2c(OCC3=NCCN3)cccc2c1`: the logD was 0.68.

In the case of `C[C@@H]1C2CCCC1(c1cccc(O)c1)CCN2C` (stereo partly drawn), the logD was determined as 0.52.

Compound `c1ccc(-c2ccc(C3CN4CCC3CC4)cc2)cc1` (stereo not drawn) yielded a logD of 1.76.

As for `COC(=O)C1C(OC(=O)c2ccccc2)CC2CCC1N2C` (stereo not drawn), the log distribution coefficient (logD) is 1.06.

`O=C(O)c1cc2ccccc2n1Cc1ccccc1` came in with a logD of 0.78.

`COc1ccc2c(c1)cc(C(=O)O)n2Cc1ccc(Cl)c(Cl)c1` yielded a logD of 1.66.

Consider `NC(Cc1ccccc1)c1ccccc1` (stereo not drawn), for which the logD stood at 1.32.

`O=C1O[C@]2(CN3CCC2CC3)CN1c1cccs1` registered a logD of 0.9.

For the compound `O=C(N[C@H]1CN2CCC1CC2)c1ccc(-c2ccccn2)s1`, the logD was 0.7.

As for `Cc1ccc(NC(=O)c2ccnc(N3CCOCC3)c2)cc1Nc1ccnc(N(C)C2CCN(C)CC2)n1`, the logD turned out to be 1.8.

The compound `CC12NC(Cc3ccccc31)c1ccccc12` (stereo not drawn) yielded a pH-dependent lipophilicity (logD) of 1.7.

`CNC1=Nc2ncccc2C(c2cc[nH]c2)=NC1c1cccs1` (stereo not drawn) yielded a logD of 1.73.

`CNC1=Nc2ncccc2C(c2ncco2)=NC1c1cccs1` (stereo not drawn) displayed a logD of 1.14.

`CC(=O)N(C)c1ccccc1` came in with a log distribution coefficient (logD) of 1.1.

Regarding `CNC1=Nc2ncccc2C(c2ccco2)=NC1c1ccns1` (stereo not drawn), the logD amounted to 1.44.

As to `Cc1ccc(OC(=O)N2CCN3CCC2CC3)cc1`, the logD turned out to be 1.02.

Regarding `COc1ccc2c3c1OC1C(O)C=CC4C(C2)N(C)CCC341` (stereo not drawn), the logD was found to be 0.8.

`COc1cc2c(c(OC)c1OC)-c1ccc(OC)c(=O)cc1C(NC(C)=O)CC2` (stereo not drawn) gave a logD of 1.12.

In turn, `Cc1cc(N)c2cc(NC(=O)CC(=O)Nc3ccc4nc(C)cc(N)c4c3)ccc2n1` yielded a logD of 1.35.

The same data set, now with this note: octan-1-ol/water, pH 7.4, LogD7.4.
`COC(=O)Nc1cnc(-c2ccc(F)cc2)n(CC(=O)NC(C(=O)C(F)(F)F)C(C)C)c1=O` (stereo not drawn) registered a logD of 1.82.

Take `CC(C)C(NC(=O)Cn1c(-c2ccccc2)ccc(NC(=O)OCc2ccccn2)c1=O)C(=O)C(F)(F)F` (stereo not drawn): the logD came out at 1.91. This logD and that of the compound before are within 0.2 log units of each other.

With `CC(C)CC(c1ccccn1)n1[nH]c(=O)c2nc3cc(Cl)ccc3c(O)c2c1=O` (stereo not drawn), the logD came to 1.83. The logD values of the last two compounds are within 0.2 log units of each other.

Take `O=c1[nH]n(C(c2ccccn2)C2CCCC2)c(=O)c2c(O)c3ccc(Cl)cc3nc12` (stereo not drawn): the pH-dependent lipophilicity (logD) turned out to be 1.9.

`NC(=O)c1cccc(OC2CCN(Cc3ccccc3)CC2)c1` showed a pH-dependent lipophilicity (logD) of 1.92.

The compound `Cc1occc(=O)c1OCc1ccc(F)cc1` had a logD of 1.91. The logD values of the last two compounds are within 0.2 log units of each other.

In turn, `Cc1occc(=O)c1OCc1ccccc1` registered a logD of 1.87.

With `Nc1[nH]nc2cccc(Cl)c12`, the logD came out at 1.92.

As to `O=c1c(-c2ccc(O)c(O)c2)coc2cc(O)ccc12`, the logD was 1.88.

`CC(C)C(NC(=O)Cn1c(-c2ccccc2)cc2c(O)nc(O)nc2c1=O)C(=O)C(F)(F)F` (stereo not drawn) came in with a logD of 1.88.

`N=C(N)Nc1nc2ccccc2o1` displayed a logD of 1.91.

On to `CC(C)C(NC(=O)Cn1c(-c2ccccc2)cc2c(=O)n(CCN3CCOCC3)c(=O)[nH]c2c1=O)C(=O)C(F)(F)F` (stereo not drawn), for which the logD turned out to be 1.91.

`O=C(NNc1cccc(Cl)c1)c1cccnc1Cl` displayed a logD of 1.87.

`Nc1c2c(nc3c(-c4ncccn4)cccc13)CN(C1CCC1)C2=O`: the logD turned out to be 1.85.

Take `COc1cc2c(Nc3c(Cl)ccc4c3OCO4)ncnc2cc1OCC1CCN(C)CC1`: the logD came out at 1.83.

As for `O=S1NC(Cc2ccc3ccccc3c2)=NO1` (stereo not drawn), the logD was found to be 1.85.

`Fc1cccc(-c2cncc(CNCC3CC3)n2)c1F` yielded a logD of 1.82. The logD values of the last two compounds are within 0.2 log units of each other.

`CCC(c1nc2ccsc2c(=O)n1Cc1ccccc1)N(CCCN)C(=O)c1ccc(C)cc1` (stereo not drawn): the logD was 1.81.

`C[C@H]1O[C@@H](n2cnc3c(N)nc(OC(C4CC4)C(F)(F)F)nc32)[C@H](O)[C@@H]1O` (stereo partly drawn) showed a logD of 1.83.

As to `CCN1CCC[C@H](CN2CCN(C(=O)Nc3ccc(Cl)c(Cl)c3)CC2)C1`, the logD came out at 1.86.

As to `CC(C)N1CCN[C@@H](CN2CCN(C(=O)Nc3ccc(Cl)c(Cl)c3)CC2)C1`, the logD worked out at 1.92.

Compound `c1ccc(C2Cc3ccccc3CN2)cc1` (stereo not drawn) displayed a pH-dependent lipophilicity (logD) of 1.9.

For the compound `c1ccc(CC2NCCc3ccccc32)cc1` (stereo not drawn), the log distribution coefficient (logD) worked out at 1.89. This logD and that of the compound before are within 0.2 log units of each other.

The compound `Cc1cccc(S(=O)(=O)NC(=O)N2CCC(N3CCC(Oc4ccc(Cl)c(Cl)c4)CC3)CC2)c1` had a logD of 1.84. The logD values of the last two compounds are within 0.2 log units of each other.

As for `N#Cc1cccc(S(=O)(=O)NC(=O)N2CCC(N3CCC(Oc4ccc(Cl)c(Cl)c4)CC3)CC2)c1`, the logD is 1.81. The logD values of the last two compounds are within 0.2 log units of each other.

As for `CCOC(=O)c1coc2ccccc2c1=O`, the logD was determined as 1.81.

In turn, `CCCCNc1nc(N)c2[nH]c(=O)n(Cc3ccc(OCCN(C)C)nc3)c2n1` came in with a log distribution coefficient (logD) of 1.9.

The compound `N#Cc1ccc2cccc(O)c2n1` had a log distribution coefficient (logD) of 1.81. This logD and that of the compound before are within 0.2 log units of each other.

`CNc1cnc(-c2ccc(F)cc2)n(CC(=O)NC(C(=O)C(F)(F)F)C(C)C)c1=O` (stereo not drawn) had a logD of 1.86.

Compound `COC(=O)N1CCN(c2ccnc(-n3ccnc3)n2)C(CC(=O)NCc2ccc3c(c2)OCO3)C1` (stereo not drawn) registered a logD of 1.88.

Regarding `O=C(O)c1[nH]c2cc(Cl)cc(Cl)c2c1/C=C1\CCN(c2ccccc2)C1=O`, the logD turned out to be 1.85.

The compound `Cc1ccc(NC(=O)c2ccnc(N3CCOCC3)c2)cc1Nc1ccnc(OCC2CCCN(C)C2)n1` (stereo not drawn) came in with a logD of 1.9. This logD and that of the compound before are within 0.2 log units of each other.

As to `NS(=O)(=O)c1ccc2c(c1)C1C=CCC1C(c1cccc3ccccc13)N2` (stereo not drawn), the logD is 1.9.

Take `CCCc1c(OCc2cccc(NC(=O)c3ccccc3C(=O)O)c2)ccc(C(C)=O)c1O`: the logD is 1.9.

Compound `Cc1cc(=O)[nH]c2ccccc12` registered a logD of 1.9.

The compound `O=C1C(=O)c2cccnc2-c2ccccc21` came in with a logD of 1.88.

For the compound `NC(=O)c1c(N)sc2c1CCCC2`, the logD was determined as 1.84.

Turning to `CC(C)C(NC(=O)Cn1c(-c2ccccc2)ccc(NC=O)c1=O)C(=O)C(F)(F)F` (stereo not drawn), the log distribution coefficient (logD) was 1.84.

For the compound `CN(C)CCCNS(=O)(=O)c1ccc(Nc2nccc(-c3cnc4ccccn34)n2)cc1`, the logD was 1.9.

The compound `COc1cc(C(=O)NS(=O)(=O)c2ccccc2)ccc1Cn1ccc2ccc(C(=O)NCC3CCCC3)cc21` displayed a logD of 1.93.

As to `Nc1nc(-c2ccccc2)nn1Cc1ccccc1`, the logD came out at 1.91. This logD and that of the compound before are within 0.2 log units of each other.
